The text below walks through data of ChEMBL document CHEMBL5344426, “Imidazolone as an Amide Bioisostere in the Development of β-1,3-N-Acetylglucosaminyltransferase 2 (B3GNT2) Inhibitors” (J Med Chem, 2023).

Assay [1] concerns the target N-acetyllactosaminide beta-1,3-N-acetylglucosaminyltransferase 4 (Homo sapiens, UniProt Q9C0J1). As to the kind of experiment: Inhibition of B3GNT4 (unknown origin) using Beta-lactose and UDP-GlcNAc as substrate incubated for 1.5 to 2 hrs by UDP-Glo based analysis.
Assay [2] has as its target T1, N-acetyllactosaminide beta-1,3-N-acetylglucosaminyltransferase 2 (Homo sapiens, UniProt Q9NY97).
T1 sequence (Q9NY97 whole entry): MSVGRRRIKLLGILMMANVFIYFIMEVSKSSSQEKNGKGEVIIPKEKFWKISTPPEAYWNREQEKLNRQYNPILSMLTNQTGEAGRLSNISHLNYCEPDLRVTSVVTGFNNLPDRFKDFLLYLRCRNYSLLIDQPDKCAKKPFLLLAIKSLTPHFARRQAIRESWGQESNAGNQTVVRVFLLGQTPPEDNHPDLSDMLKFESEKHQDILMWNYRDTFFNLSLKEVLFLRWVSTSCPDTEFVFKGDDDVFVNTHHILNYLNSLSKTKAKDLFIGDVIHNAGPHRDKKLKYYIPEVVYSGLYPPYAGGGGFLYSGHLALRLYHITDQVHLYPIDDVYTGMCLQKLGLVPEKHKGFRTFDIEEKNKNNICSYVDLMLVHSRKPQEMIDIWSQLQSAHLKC
Briefly: Inhibition of B3GNT2 (unknown origin) using N-acetyl-lactosamine and UDP-GlcNAc as substrate incubated for 1.5 to 2 hrs by UDP-Glo based analysis.

Assay [3] has as its system Jurkat. As to the kind of experiment: Antiproliferative activity against human Jurkat cells assessed as inhibition of cell growth incubated for 3 days by SYTOX blue staining based flow cytometry analysis. The assay is classed as functional. The note with it: 72 h. In general terms: A flow cytometer gives signals particle by particle.

The IC50 is the midpoint of a concentration-inhibition curve.

Sequence of N-acetyllactosaminide beta-1,3-N-acetylglucosaminyltransferase 4 (Q9C0J1 whole entry): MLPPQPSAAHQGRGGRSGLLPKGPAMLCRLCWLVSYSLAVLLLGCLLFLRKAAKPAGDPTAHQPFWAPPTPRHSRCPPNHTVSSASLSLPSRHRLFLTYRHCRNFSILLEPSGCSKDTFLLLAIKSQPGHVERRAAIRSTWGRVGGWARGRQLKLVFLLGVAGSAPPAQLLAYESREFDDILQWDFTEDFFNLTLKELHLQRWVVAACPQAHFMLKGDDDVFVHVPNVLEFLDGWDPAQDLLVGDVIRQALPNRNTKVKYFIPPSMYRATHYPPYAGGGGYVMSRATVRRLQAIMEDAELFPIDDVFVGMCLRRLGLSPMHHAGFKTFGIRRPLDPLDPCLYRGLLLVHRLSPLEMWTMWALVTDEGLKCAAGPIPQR

As to `C[C@H](NC(=O)c1ccc2[nH]c(=O)n([C@H](C)C(C)(C)C)c2c1)c1ccc(Cl)cc1`, the IC50 was more than 250 µM in assay [1], 0.29 µM in assay [2] (read-out: IC50) and 47.2 µM in assay [3].

On to `C[C@@H](n1c(=O)[nH]c2ccc(C3=N[C@@](Cc4ccccc4)(c4cnc(C(F)(F)F)nc4)NC3=O)cc21)C(C)(C)C`, for which the IC50 in assay [2] (read-out: IC50) was 0.013 µM; in assay [3] it was 4 µM.

With `Cc1ccc([C@H](C)NC(=O)c2ccc3[nH]c(=O)n([C@H](C)C(C)(C)C)c3c2)nc1`, the IC50 is more than 250 µM in assay [1], 0.093 µM in assay [2] (read-out: IC50) and 8.8 µM in assay [3].

Consider `C[C@@H](n1c(=O)[nH]c2ccc(C(=O)NC(C)(C)c3ccc(Cl)cc3)cc21)C(C)(C)C`, for which the IC50 in assay [1] is more than 250 µM; in assay [2] (read-out: IC50), 0.84 µM.

Take `C[C@@H](n1c(=O)[nH]c2ccc(C3=NC(=O)[C@](C)(c4ccc(C(F)(F)F)cn4)N3)cc21)C(C)(C)C`: the IC50 in assay [2] (read-out: IC50) is 0.03 µM; in assay [3], 23.8 µM.

As to `C[C@@H](n1c(=O)[nH]c2ccc(C3=N[C@@](C)(c4ccc5nccn5c4)NC3=O)cc21)C(C)(C)C`, the IC50 is 0.37 µM in assay [2] (read-out: IC50) and 38.2 µM in assay [3].

Regarding `C[C@@H](n1c(=O)[nH]c2ccc(C3=NC(=O)[C@@](C)(c4ccc(Cl)cn4)N3)cc21)C(C)(C)C`, in assay [2] (read-out: IC50), the concentration for half-maximal inhibition (IC50) stood at 0.51 µM.

For `C[C@@H](n1c(=O)[nH]c2ccc(C3=NC(=O)[C@](C)(c4ccc(Cl)cn4)N3)cc21)C(C)(C)C`, the results for the IC50 in assay [2] (read-out: IC50) and in assay [3] were 0.066 µM and 8.1 µM, respectively.

In the case of `C[C@H](NC(=O)c1ccc2[nH]c(=O)n([C@H](C)C(C)(C)C)c2c1)c1cnc(Cl)nc1`, the IC50 was more than 250 µM in assay [1], 0.076 µM in assay [2] (read-out: IC50) and 15.3 µM in assay [3].

As to `C[C@H](NC(=O)c1ccc2[nH]c(=O)n([C@H](C)C(C)(C)C)c2c1)c1ccc(Br)cn1`, the IC50 came out at 169 µM in assay [1], 0.1 µM in assay [2] (read-out: IC50) and 12.5 µM in assay [3].

Consider `Cc1ncc([C@H](C)NC(=O)c2ccc3[nH]c(=O)n([C@H](C)C(C)(C)C)c3c2)cn1`, for which the IC50 is more than 250 µM in assay [1], 0.12 µM in assay [2] (read-out: IC50) and 22.4 µM in assay [3].

Consider `C[C@@H](n1c(=O)[nH]c2ccc(C3=C[C@@](C)(c4cnc(C(F)(F)F)nc4)OC3=O)cc21)C(C)(C)C`, for which the IC50 in assay [2] (read-out: IC50) is 0.028 µM; in assay [3], 5.6 µM.

Regarding `C[C@@H](NC(=O)c1ccc2[nH]c(=O)n([C@H](C)C(C)(C)C)c2c1)c1ccc(Cl)cc1`, the values for the IC50 in assay [1] and in assay [2] (read-out: IC50) were more than 250 µM and 2.72 µM, respectively.

Turning to `C[C@@H](n1c(=O)[nH]c2ccc(C(=O)NCc3ccc(Cl)cc3)cc21)C(C)(C)C`, the IC50 in assay [1] was more than 250 µM; in assay [2] (read-out: IC50), 0.61 µM; in assay [3] it was 67.8 µM.

Consider `C[C@H](NC(=O)c1ccc2[nH]c(=O)n([C@H](C)C(C)(C)C)c2c1)c1ccc(Cl)cn1`, for which the figures for the IC50 in assay [1], in assay [2] (read-out: IC50) and in assay [3] were more than 250 µM, 0.23 µM and 32 µM, respectively.

Consider `C[C@@H](n1c(=O)[nH]c2ccc(C3=N[C@@](C)(c4cc5ccccc5[nH]4)NC3=O)cc21)C(C)(C)C`, for which the IC50 in assay [2] (read-out: IC50) turned out to be 0.055 µM; in assay [3], 9.9 µM.

Regarding `CC(C)NC(=O)c1ccc2[nH]c(=O)n([C@H](C)C(C)(C)C)c2c1`, the values for the IC50 in assay [1] and in assay [2] (read-out: IC50) were more than 250 µM and 2.9 µM, respectively.

Turning to `C[C@H](NC(=O)c1ccc2[nH]c(=O)n([C@H](C)C(C)(C)C)c2c1)c1cnc(Cl)cn1`, the results for the IC50 in assay [1], in assay [2] (read-out: IC50) and in assay [3] were more than 250 µM, 0.89 µM and 23.5 µM, respectively.

`C[C@@H](n1c(=O)[nH]c2ccc(C3=N[C@]4(CCc5cc(Br)ccc54)NC3=O)cc21)C(C)(C)C`: the results for the IC50 in assay [2] (read-out: IC50) and in assay [3] were 0.053 µM and 6.4 µM, respectively.

As for `Cc1[nH]c2ccc([C@]3(C)N=C(c4ccc5[nH]c(=O)n([C@H](C)C(C)(C)C)c5c4)C(=O)N3)cc2c1C`, in assay [2] (read-out: IC50), the IC50 was 1.01 µM.

For the compound `C[C@@H](n1c(=O)[nH]c2ccc(C3=N[C@@](C)(c4cnc(C(F)(F)F)nc4)NC3=O)cc21)C(C)(C)C`, the IC50 in assay [2] (read-out: IC50) amounted to 0.024 µM; in assay [3] it was 3.8 µM.

`C[C@H](NC(=O)c1ccc2[nH]c(=O)n([C@H](C)C(C)(C)C)c2c1)c1ccc(C(F)(F)F)cn1`: the figures for the IC50 in assay [1], in assay [2] (read-out: IC50) and in assay [3] were more than 250 µM, 0.23 µM and 66.1 µM, respectively.

As to `C[C@@H](n1c(=O)[nH]c2ccc(C3=N[C@@](c4cccnc4)(c4nnc[nH]4)NC3=O)cc21)C(C)(C)C`, the IC50 in assay [2] (read-out: IC50) was 0.026 µM; in assay [3] it was more than 85 µM.

Regarding `C[C@@H](n1c(=O)[nH]c2ccc(C3=N[C@](c4ccc(Cl)nc4)(c4ccccn4)NC3=O)cc21)C(C)(C)C`, the IC50 came out at 0.039 µM in assay [2] (read-out: IC50) and 5.5 µM in assay [3].

For `C[C@@H](n1c(=O)[nH]c2ccc(C3=NC(=O)[C@](C)(c4ncc(Cl)cn4)N3)cc21)C(C)(C)C`, the IC50 came out at 0.082 µM in assay [2] (read-out: IC50) and 16.2 µM in assay [3].

As to `CC(C)Cn1c(=O)[nH]c2ccc(C(=O)O)cc21`, the results for the IC50 in assay [1] and in assay [2] (read-out: IC50) were more than 250 µM and 9.1 µM, respectively.

Take `C[C@@H](n1c(=O)[nH]c2ccc(C3=NC(=O)[C@](C)(c4ccccc4)N3)cc21)C(C)(C)C`: the IC50 in assay [1] was more than 250 µM; in assay [2] (read-out: IC50), 0.6 µM; in assay [3], more than 85 µM.

Turning to `C[C@@H](n1c(=O)[nH]c2ccc(C(=O)O)cc21)C(C)(C)C`, the IC50 in assay [1] was 122 µM; in assay [2] (read-out: IC50), 0.26 µM; in assay [3], more than 85 µM.

Consider `Cc1ccc([C@]2(C)NC(c3ccc4[nH]c(=O)n([C@H](C)C(C)(C)C)c4c3)=NC2=O)nc1`, for which the IC50 in assay [2] (read-out: IC50) was 0.096 µM; in assay [3] it was 13.8 µM.

For the compound `C[C@@H](n1c(=O)[nH]c2ccc(C3=NC(c4ccc(Cl)cn4)(c4ccc(Cl)cn4)NC3=O)cc21)C(C)(C)C`, the IC50 in assay [2] (read-out: IC50) came to 0.2 µM; in assay [3], 37.1 µM.

`C[C@@H](n1c(=O)[nH]c2ccc(C(=O)Nc3ccccc3)cc21)C(C)(C)C`: the IC50 in assay [1] is more than 250 µM; in assay [2] (read-out: IC50), 0.82 µM; in assay [3], 38.8 µM.

Regarding `Cc1[nH]c2cc(NC(=O)c3ccc4[nH]c(=O)n([C@H](C)C(C)(C)C)c4c3)ccc2c1C`, the values for the IC50 in assay [1], in assay [2] (read-out: IC50) and in assay [3] were 165 µM, 0.06 µM and 3.6 µM, respectively.

As for `Cc1ncc([C@]2(C)NC(c3ccc4[nH]c(=O)n([C@H](C)C(C)(C)C)c4c3)=NC2=O)cn1`, the IC50 was more than 250 µM in assay [1], 0.024 µM in assay [2] (read-out: IC50) and 4.2 µM in assay [3].

With `C[C@@H](n1c(=O)[nH]c2ccc(C3=N[C@@](C)(c4ccc(Cl)cn4)NC3=O)cc21)C(C)(C)C`, the IC50 in assay [2] (read-out: IC50) worked out at 0.069 µM; in assay [3] it was 8.2 µM.

Turning to `C[C@@H](n1c(=O)[nH]c2ccc(C3=NOC(C)(c4ccccc4)N3)cc21)C(C)(C)C` (stereo not given in full), the IC50 in assay [2] (read-out: IC50) is 0.9 µM; in assay [3], 28 µM.

On to `Cc1ccc([C@]2(C)NC(c3ccc4[nH]c(=O)n([C@H](C)C(C)(C)C)c4c3)=NC2=O)cn1`, for which the IC50 in assay [2] (read-out: IC50) is 0.029 µM; in assay [3], 5.1 µM.

On to `C[C@@H](n1c(=O)[nH]c2ccc(C3=NC(C)(c4cnc(C(F)(F)F)nc4)C(=O)O3)cc21)C(C)(C)C` (stereo not given in full), for which the IC50 result in assay [2] is reported as “Not Active”.

Consider `C[C@H](NC(=O)c1ccc2[nH]c(=O)n([C@H](C)C(C)(C)C)c2c1)c1ncc(Cl)cn1`, for which the IC50 in assay [1] was more than 250 µM; in assay [2] (read-out: IC50), 0.43 µM; in assay [3], 29.2 µM.

Turning to `C[C@@H](n1c(=O)[nH]c2ccc(C(=O)N3CCOCC3)cc21)C(C)(C)C`, the IC50 is more than 250 µM in assay [1] and 26.6 µM in assay [2] (read-out: IC50).
